For six compounds, TGI and GI50 results are on record in PubChem BioAssay (NCI).

Molecules are shown by their SMILES.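 Protocol summary: plate cells (96-well), add compound at 5 concentrations, incubate 48 h, interpolate endpoints linearly. GI50 is the concentration that inhibits growth by half. TGI: concentration producing complete growth inhibition.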 A value given as a limit tells only on which side of the number the result lay.

Test systems include ACHN renal; CCRF-CEM leukemia; HCT-15 colon; HL-60(TB) leukemia; KM12 colon; NCI-H226 lung; OVCAR-3 ovarian; PC-3 prostate; SF-539 CNS; SN12C renal; SNB-75 CNS; UACC-62 melanoma; COLO 205 colon; IGROV1 ovarian; NCI-H522 lung; DU-145 prostate.
Common to all, as to assay: growth of human tumour cells (NCI), 48 h

As to `Cc1ccc(-c2csc(=Nc3c(C)n(C)n(-c4ccccc4)c3=O)n2CCO)cc1`, the TGI in the test on ACHN renal, in the test with CCRF-CEM leukemia, in the test with HCT-15 colon, in the test with HL-60(TB) leukemia, with KM12 colon and in the test with NCI-H226 lung was greater than 100 µM in each case. In addition, the TGI with OVCAR-3 ovarian, with PC-3 prostate, in the test with SF-539 CNS, with SN12C renal, with SNB-75 CNS and in the test with UACC-62 melanoma was greater than 100 µM throughout.

`CCCCCCCCCCCCCCCCOCC(COP(=O)([O-])OCC[N+](C)(C)C)OCCCCCCCCCCCCCCCC` (configuration not stated): the TGI with CCRF-CEM leukemia, in the test with COLO 205 colon, with HCT-15 colon, with HL-60(TB) leukemia, in the test with IGROV1 ovarian and in the test with KM12 colon was greater than 100 µM in each case. The TGI in the test with NCI-H226 lung, in the test on NCI-H522 lung, with OVCAR-3 ovarian, in the test with SF-539 CNS, with SN12C renal and in the test on SNB-75 CNS was greater than 100 µM in each case. For the same compound, in the test with UACC-62 melanoma, the TGI was greater than 100 µM.

`COc1cc2c3c(n(CCCNCCCNCCCn4c5c(c6ccccc6c4=O)C(=O)c4ccccc4-5)c(=O)c2cc1OC)-c1cc2c(cc1C3=O)OCO2`: the GI50 in the test on ACHN renal, in the test on DU-145 prostate, in the test with IGROV1 ovarian and in the test with SF-539 CNS was less than 0.01 µM in each case. Also, the TGI is less than 0.0219 µM in the test with ACHN renal, 0.213 µM with DU-145 prostate and greater than 100 µM in the test with IGROV1 ovarian.

For `CC(C)[C@](O)(C(=O)OCC1CC[N+]2([O-])CC[C@@H](O)C12)[C@H](C)O` (some centres not stated), the TGI in the test on CCRF-CEM leukemia, in the test with COLO 205 colon, with HCT-15 colon, in the test on HL-60(TB) leukemia, with IGROV1 ovarian and with KM12 colon was greater than 375 µM in each case. The TGI with NCI-H226 lung was greater than 375 µM; in the test on NCI-H522 lung it was greater than 375 µM; with OVCAR-3 ovarian, greater than 375 µM; in the test with SF-539 CNS, greater than 375 µM; in the test with SN12C renal, greater than 375 µM; in the test with SNB-75 CNS, greater than 161 µM. In addition, in the test on UACC-62 melanoma, the TGI was greater than 375 µM.

For the compound `CC(C)(C)C(=O)C(C(c1ccccc1)N1CCOCC1)N1CCOCC1` (configuration not stated), the TGI in the test with ACHN renal, in the test on CCRF-CEM leukemia, in the test on DU-145 prostate, in the test on HCT-15 colon, in the test with IGROV1 ovarian and with KM12 colon was greater than 100 µM each time. For the same compound, the TGI in the test on NCI-H522 lung, in the test on OVCAR-3 ovarian, with PC-3 prostate, with SN12C renal, in the test on SNB-75 CNS and in the test with UACC-62 melanoma was greater than 100 µM in each case.

Regarding `COc1ccc(N2C(=O)C3c4[nH]c5cccc(C)c5c4C4CCC(C(C)(C)C)CC4C3C2=O)cc1` (configuration not stated), the TGI with ACHN renal, in the test with COLO 205 colon, in the test with DU-145 prostate, in the test with HCT-15 colon, with HL-60(TB) leukemia and with IGROV1 ovarian was greater than 10 µM in each case. The TGI in the test on KM12 colon, with NCI-H226 lung, in the test with NCI-H522 lung, in the test with OVCAR-3 ovarian, in the test with PC-3 prostate and in the test on SF-539 CNS was greater than 10 µM in each case. Besides, the TGI in the test with SN12C renal, with SNB-75 CNS and with UACC-62 melanoma was greater than 10 µM each time.
